Data as given in patent publication US6723747B2, “Substituted 6H-DiBenzo[c,h]chromenes as estrogenic agents” (Wyeth, priority 2001, dated 2004).
pIC50: −log10 of the molar value.

Columns and labels:
human ERβ = biological target: T1, human ERβ (Homo sapiens, UniProt Q92731); test: Radioligand binding competition with [3H]-17β-estradiol, ERβ; conditions: human ERβ ligand binding domain, read-out: ER-β IC50
T1 construct: M214-Q530 of human ERβ; Flag (C); made in house; host or cells: E. coli BL21(DE3), clarified lysate

Lewis rats = test: Lewis rat adjuvant-induced arthritis, treatment test procedure; format: in vivo; conditions: for joint inflammation score (maximal score per day 12): 10 mg/kg sc daily, treatment begun Day 8 after adjuvant
casein kinase II mRNA = test: Mammary end bud test procedure (rat mammotrophic assay); format: in vivo; conditions: 20 mg/kg sc + progesterone 30 mg/kg; ovariectomized rats; vehicle 1.61 ± 0.36
Experimental: Estrogens are required for full ductal elongation and branching of the mammary ducts, and the subsequent development of lobulo-alveolar end buds under the influence of progesterone. In this test procedure, the mammotrophic activity of selected compounds of the invention was evaluated according to the following standard pharmacological test procedure. Twenty-eight day old Sprague-Dawley rats (Taconic Farms, Germantown, N.Y.) were ovariectomized and rested for nine days. […] For the final three days, rats were also dosed subcutaneously with progesterone (30 mg/kg). On the seventh day, rats were euthanised and a mammary fat pad excised. This fat pad was analyzed for casein kinase II mRNA as a marker of end bud proliferation. Casein kinase II mRNA was anlayzed by real-time RT-PCR. Briefly, RNA was isolated following Trizol (GibcoBRL, Grand Island, N.Y.) according to the manufacture's directions, Samples were treated with DNAse I using DNA-free kit (Ambion), and casein kinase II mRNA levels were measured by real-time RT-PCR using the Taqman Gold procedure (PE Applied Biosystems). […] Casein kinase II mRNA levels were normalized to 18s ribosomal RNA contained within each sample reaction using primers and probe supplied by PE Applied Biosystems. The following results were obtained for an example of the invention (Table (4)).

129 SvE mice = test: Mouse uterotrophic test procedure (Procedure 2); format: in vivo; conditions: 50 mg/kg subcutaneously, 4 days, immature mice; first experiment, vehicle 9.5 ± 0.3
Experimental: Procedure 2: Sexually immature (18 days of age) 129 SvE mice were obtained from Taconic and provided unrestricted access to a casein-based diet (Purina Mills 5K96C) and water. On day 22, 23, 24 and 25 the mice were dosed subcutaneously with compound or vehicle (corn oil). There were six mice/group and they were euthanized approximately 6 hours after the last injection by CO2 asphyxiation and pneumothorax. Uteri were removed and weighed after trimming associated fat and expressing any internal fluid. The following results (Table (2)) were obtained for representative compounds from the invention.

HLA-B27 rats = test: HLA rat test procedure for inflammatory bowel disease; format: in vivo; conditions: for stool character, group's average score: 10 mg/kg oral daily, 3=diarrhea, 2=soft, 1=normal stool
Experimental: Representative compounds of the invention were evaluated in the HLA rat standard pharmacological test procedure which emulates inflammatory bowel disease in humans. The following briefly describes the procedure used and results obtained. Male HLA-B27 rats were obtained from Taconic and provided unrestricted access to food (PMI Lab diet 5001) and water. Rats were dosed once daily (orally) with either vehicle (2% tween-80/0.5% methylcellulose) or Example 1d (10 mg/kg) for 26 days. Stool quality was observed daily and graded according to the following scale: Diarrhea=3; soft stool=2; normal stool=1. […] At the end of the study, serum was collected and stored at −70° C. A section of colon was prepared for histological analysis and an additional segment was analyzed for myeloperoxidase activity.
Histological analysis. Colonic tissue was immersed in 10% neutral buffered formalin. Each specimen of colon was separated into four samples for evaluation. The formalin-fixed tissues were processed in a Tissue Tek vacuum infiltration processor (Miles, Inc; West Haven, Conn.) for paraffin embedding. The samples were sectioned at 5 μm and then stained with hematoxylin and eosin (H&E) for blinded histologic evaluations using a scale modified after Boughton-Smith. After the scores were completed the samples were unblinded, and data were tabulated and analyzed by ANOVA linear modeling with multiple mean comparisons. Sections of colonic tissue were evaluated for several disease indicators and given relative scores.

[1] = tarsal joints, 10 mg/kg, vehicle 2.58 ± 0.38

T1 sequence (Q92731 214-530): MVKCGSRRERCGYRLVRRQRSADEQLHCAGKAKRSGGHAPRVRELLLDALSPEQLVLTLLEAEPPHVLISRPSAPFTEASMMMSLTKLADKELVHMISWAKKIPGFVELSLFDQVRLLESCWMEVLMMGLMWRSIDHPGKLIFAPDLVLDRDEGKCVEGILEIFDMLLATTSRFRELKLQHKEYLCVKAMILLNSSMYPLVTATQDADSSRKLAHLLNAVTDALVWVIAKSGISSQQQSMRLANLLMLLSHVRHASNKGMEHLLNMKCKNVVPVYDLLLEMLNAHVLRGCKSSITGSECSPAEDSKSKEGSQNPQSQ

N#Cc1cc2c(c3ccc(O)cc13)OCc1cc(O)ccc1-2 [Example 1d, 2,8-Dihydroxy-6H-dibenzo[c,h]chromene-12-carbonitrile]
pIC50 (human ERβ): 8.74
joint inflammation score (maximal score per day 12) (Lewis rats; day 1, vehicle 10.83): 11.33
joint inflammation score (maximal score per day 12) (Lewis rats; day 2, vehicle 11.00): 11.15
joint inflammation score (maximal score per day 12) (Lewis rats; day 3, vehicle 10.83): 11.33
joint inflammation score (maximal score per day 12) (Lewis rats; day 4, vehicle 11.33): 9.83
joint inflammation score (maximal score per day 12) (Lewis rats; day 5, vehicle 11.50): 8.83
joint inflammation score (maximal score per day 12) (Lewis rats; day 6, vehicle 11.50): 7.83
joint inflammation score (maximal score per day 12) (Lewis rats; day 7, vehicle 11.50): 6.16
joint inflammation score (maximal score per day 12) (Lewis rats; day 8, vehicle 11.50): 5.00
joint inflammation score (maximal score per day 12) (Lewis rats; day 9, vehicle 11.00): 4.33
joint inflammation score (maximal score per day 12) (Lewis rats; day 10, vehicle 11.00): 2.66
joint inflammation score (maximal score per day 12) (Lewis rats; day 11, vehicle 10.66): 1.83
joint inflammation score (maximal score per day 12) (Lewis rats; day 12, vehicle 10.66): 1.83
joint inflammation score (maximal score per day 12) (Lewis rats; day 13, vehicle 10.50): 2.66
joint inflammation score (maximal score per day 12) (Lewis rats; day 14, vehicle 9.83): 2.66
joint inflammation score (maximal score per day 12) (Lewis rats; day 15, vehicle 8.10): 2.00
joint inflammation score (maximal score per day 12) (Lewis rats; day 16, vehicle 7.35): 2.00
joint inflammation score (maximal score per day 12) (Lewis rats; day 17, vehicle 6.50): 1.50
Tidemark Integrity (0-1), Mankin score (Lewis rats; tarsal joints, 10 mg/kg, vehicle 0): 0
Pannus (0-1), synovitis histological score, mean ± SD (Lewis rats; tarsal joints, 10 mg/kg, vehicle 1.00 ± 0.89): 0.08 ± 0.20
Fibroplasia (0-3), synovitis histological score, mean ± SD (Lewis rats; tarsal joints, 10 mg/kg, vehicle 1.75 ± 0.42): 0.75 ± 0.42
Saffranin-O/Fast Green Staining (0-4), Mankin score, mean ± SD (Lewis rats; tarsal joints, 10 mg/kg, vehicle 2.50 ± 0.32): 1.25 ± 0.61
Cartilage Cells (0-3), Mankin score, mean ± SD (Lewis rats; [1]): 0.58 ± 0.38
Synovial Structure (0-3), synovitis histological score, mean ± SD (Lewis rats; [1]): 1.75 ± 0.52
Cartilage Structure (0-6), Mankin score, mean ± SD (Lewis rats; tarsal joints, 10 mg/kg, vehicle 2.83 ± 0.26): 1.67 ± 0.41
Inflammatory Cells (0-3), synovitis histological score, mean ± SD (Lewis rats; tarsal joints, 10 mg/kg, vehicle 2.92 ± 0.20): 1.33 ± 0.41
Total Mankin Score (0-14), mean ± SD (Lewis rats; tarsal joints, 10 mg/kg, vehicle 7.92 ± 0.74): 3.50 ± 1.27
Total Synovitis Score (0-10), mean ± SD (Lewis rats; tarsal joints, 10 mg/kg, vehicle 8.25 ± 1.57): 3.92 ± 1.36
Casein kinase II mRNA/18S rRNA (mean ± SEM) (casein kinase II mRNA): 1.4 ± 0.7
mean uterine weight ± SEM (129 SvE mice): 9.8 ± 0.5 mg
stool quality (HLA-B27 rats; 10 mg/kg orally once daily for 26 days): stool quality improved
stool character, group's average score (HLA-B27 rats; day 1, vehicle 1): 1
stool character, group's average score (HLA-B27 rats; day 2, vehicle 1): 1
stool character, group's average score (HLA-B27 rats; day 3, vehicle 1): 1
stool character, group's average score (HLA-B27 rats; day 4, vehicle 1.25): 1
stool character, group's average score (HLA-B27 rats; day 5, vehicle 2.5): 1.5
stool character, group's average score (HLA-B27 rats; day 6, vehicle 2.75): 1.25
stool character, group's average score (HLA-B27 rats; day 7, vehicle 2.75): 1.25
stool character, group's average score (HLA-B27 rats; day 8, vehicle 2.75): 1
stool character, group's average score (HLA-B27 rats; day 9, vehicle 3): 1.25
stool character, group's average score (HLA-B27 rats; day 10, vehicle 3): 1
stool character, group's average score (HLA-B27 rats; day 11, vehicle 2.75): 1.25
stool character, group's average score (HLA-B27 rats; day 12, vehicle 2.75): 1.25
stool character, group's average score (HLA-B27 rats; day 13, vehicle 2.75): 1.25
stool character, group's average score (HLA-B27 rats; day 14, vehicle 2.75): 1.25
stool character, group's average score (HLA-B27 rats; day 15, vehicle 2.75): 1
stool character, group's average score (HLA-B27 rats; day 16, vehicle 3): 1
stool character, group's average score (HLA-B27 rats; day 17, vehicle 2.75): 1
stool character, group's average score (HLA-B27 rats; day 18, vehicle 2.75): 1
stool character, group's average score (HLA-B27 rats; day 19, vehicle 2.75): 1
stool character, group's average score (HLA-B27 rats; day 22, vehicle 3): 1
stool character, group's average score (HLA-B27 rats; day 23, vehicle 3): 1
stool character, group's average score (HLA-B27 rats; day 24, vehicle 3): 1
stool character, group's average score (HLA-B27 rats; day 25, vehicle 3): 1
stool character, group's average score (HLA-B27 rats; day 26, vehicle 3): 1
measurements of tissue injury in colon (HLA-B27 rats; histological analysis, 10 mg/kg orally): effective in reducing several measurements of tissue injury
Fibrosis (0-2), colon histological score, mean ± SD (HLA-B27 rats; treated orally for 4 weeks, 10 mg/kg, vehicle 1.06 ± 0.32): 0.13 ± 0.14
Ulceration (0-2), colon histological score, mean ± SD (HLA-B27 rats; treated orally for 4 weeks, 10 mg/kg, vehicle 1.44 ± 0.66): 0.19 ± 0.13
Lesion depth (0-2), colon histological score, mean ± SD (HLA-B27 rats; treated orally for 4 weeks, 10 mg/kg, vehicle 1.56 ± 0.63): 0.19 ± 0.13
Inflammation (0-3), colon histological score, mean ± SD (HLA-B27 rats; treated orally for 4 weeks, 10 mg/kg, vehicle 2.88 ± 0.14): 1.38 ± 0.43
Total score, colon histological score, mean ± SD (HLA-B27 rats; treated orally for 4 weeks, 10 mg/kg, vehicle 6.94 ± 1.51): 1.88 ± 0.14
melting point: > 250 °C
